Results taken from patent US6074859A, “Mutant-type bioluminescent protein, and process for producing the mutant-type bioluminescent protein” (Kikkoman Corporation, priority 1998, dated 2000).

B1: Luciola lateralis luciferase (Aquatica lateralis) (protein)
chain: MENMENDENIVYGPEPFYPIEEGSAGAQLRKYMDRYAKLGAIAFTNALTGVDYTYAEYLEKSCCLGEALKNYGLVVDGRIALCSENCEEFFIPVLAGLFIGVGVAPTNEIYTLRELVHSLGISKPTIVFSSKKGLDKVITVQKTVTAIKTIVILDSKVDYRGYQSMDNFIKKNTPQGFKGSSFKTVEVNRKEQVALIMNSSGSTGLPKGVQLTHENAVTRFSHARDPIYGNQVSPGTAILTVVPFHHGFGMFTTLGYLTCGFRIVMLTKFDEETFLKTLQDYKCSSVILVPTLFAILNRSELLDKYDLSNLVEIASGGAPLSKEIGEAVARRFNLPGVRQGYGLTETTSAIIITPEGDDKPGASGKVVPLFKAKVIDLDTKKTLGPNRRGEVCVKGPMLMKGYVDNPEATREIIDEEGWLHTGDIGYYDEEKHFFIVDRLKSLIKYKGYQVPPAELESVLLQHPNIFDAGVAGVPDPIAGELPGAVVVLEKGKSMTEKEVMDYVASQVSNAKRLRGGVRFVDEVPKGLTGKIDGKAIREILKKPVAKM

What was measured:
[1] = tested on: GA1 luciferase (fusion of Luciola cruciata luciferase N-terminal portion and Photinus pyralis luciferase C-terminal portion, SEQ ID NO:5); experiment: Km for substrate ATP, peak light emission (HEPES pH 7.5); type: biochemical; settings: read-out: Km for the substrate ATP; ATP 0 to 2 mM, 50 mM HEPES (pH 7.5), 0.2 mM luciferin, 10 mM MgSO4
Method: The Km value of this purified preparation for the substrate ATP was determined. The peak of the emission of light generated by use of the enzyme with the concentration of ATP varying from 0 to 2 mM in a solution containing 50 mM HEPES (pH 7.5), 0.2 mM luciferin and 10 mM MgSO4 was measured in Luminometer ML3000 (Dynatech) and the result is shown in the table 1 below.

[2] = tested on: HHA1 luciferase (fusion of Luciola lateralis luciferase N-terminal, from pHLf7-217Leu, and Photinus pyralis luciferase C-terminal, SEQ ID NO:10); experiment: Km for substrate ATP, peak light emission (Tricine pH 7.8); type: biochemical; settings: read-out: Km (affinity for ATP); ATP 0 to 2 mM, 50 mM Tricine buffer (pH 7.8), 0.2 mM luciferin, 10 mM MgSO4
Method: 50 ng of the above EcoRV--EcoRV fragment from pT3/T7-LUC and 50 ng of the above EcoRV-NaeI fragment from pHLf7-217Leu were incubated at 15° C. for 16 hours in 20 μ l DNA ligase buffer in the presence of 300 U of T4 DNA ligase. The reaction mixture was used to transform E. coli JM 109 by the Hana-han method [DNA Cloning, 1, 109-135 (1985)], and ampicillin-resistant colonies were selected. A crude enzyme was prepared from the selected colonies in the method described in Example 1, and a plasmid was removed by the alkali-SDS method from those having luminescence activity, and the structure of the plasmid was confirmed. This plasmid was subjected to reaction with a dye primer tuck sequencing kit (Applied Biosystems) and analyzed by electrophoresis with an ABI 373A DNA sequencer (Applied Biosystems) to determine its nucleotide sequence (SEQ ID NO:9). The amino acid sequence of a polypeptide estimated to be translated from said nucleotide sequence is shown in SEQ ID NO:10. The plasmid thus obtained was designated pHHA1.
(§1) Further, its crude enzyme solution was prepared using the method described in Example 1 and the enzyme was purified in a method described in Japanese Patent Application Laid-Open Publication No. 141592/89. The purified enzyme was designated HHA1 luciferase.

[3] = target: Photinus pyralis luciferase, wild type (Photinus pyralis, UniProt P08659); experiment: Km for substrate ATP, peak light emission (HEPES pH 7.5); type: biochemical; settings: read-out: Km for the substrate ATP; ATP 0 to 2 mM, 50 mM HEPES (pH 7.5), 0.2 mM luciferin, 10 mM MgSO4
Photinus pyralis luciferase, wild type, sequence (P08659 whole entry): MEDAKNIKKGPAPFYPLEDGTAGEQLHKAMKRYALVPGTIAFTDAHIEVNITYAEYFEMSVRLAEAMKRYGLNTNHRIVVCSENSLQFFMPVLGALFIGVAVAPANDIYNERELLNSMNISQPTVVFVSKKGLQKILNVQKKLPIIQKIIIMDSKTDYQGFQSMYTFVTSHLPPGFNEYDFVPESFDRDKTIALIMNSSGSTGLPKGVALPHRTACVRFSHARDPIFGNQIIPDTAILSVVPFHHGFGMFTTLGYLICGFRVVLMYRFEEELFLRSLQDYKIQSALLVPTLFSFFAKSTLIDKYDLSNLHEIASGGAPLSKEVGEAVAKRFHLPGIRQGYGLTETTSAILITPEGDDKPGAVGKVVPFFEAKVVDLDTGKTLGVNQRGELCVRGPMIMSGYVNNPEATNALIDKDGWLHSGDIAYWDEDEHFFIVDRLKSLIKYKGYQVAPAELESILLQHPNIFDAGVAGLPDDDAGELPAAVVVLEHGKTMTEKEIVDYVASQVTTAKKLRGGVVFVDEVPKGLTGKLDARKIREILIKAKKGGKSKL

[4] = target: Photinus pyralis luciferase (Photinus pyralis, UniProt P08659); experiment: Km for substrate ATP, peak light emission (Tricine pH 7.8); type: biochemical; settings: read-out: Km (affinity for ATP); ATP 0 to 2 mM, 50 mM Tricine buffer (pH 7.8), 0.2 mM luciferin, 10 mM MgSO4
Photinus pyralis luciferase, sequence (P08659 whole entry): as above
Method: as §1

[5] = tested on: GGA1 luciferase (fusion of thermostable Luciola cruciata luciferase N-terminal, Thr217Ile, and Photinus pyralis luciferase C-terminal, SEQ ID NO:7); type: biochemical; settings: read-out: Km for the substrate ATP; purified GGA1 enzyme, Table 2
Method: E. coli JM109 (pGGA1) was inoculated on an LB-amp agar plate [1% (W/V) Bacto-trypton, 0.5% (W/V) yeast extract, 0.5% (W/V) NaCl, (50 a g/ml) ampicillin and 1.4% (W/V) agar] and cultured at 37° C. The colonies appearing 16 hours thereafter were cultured at 37° C. for 18 hours under shaking in 10 ml of an LB-amp medium [1% (W/V) Bacto-trypton, 0.5% (W/V) yeast extract, 0.5% (W/V) NaCl and (50 μ g/ml) ampicillin]. This culture, 10 ml, was inoculated into 2 L of the above LB-amp medium and cultured at 30 ° C. for 6 hours under shaking and then centrifuged at 8000 r.p.m. for 10 minutes to give 30 g wet microbial pellet. The recovered microorganism was suspended in 20 ml buffer consisting of 0.1 M KH2 PO4 (pH 7.8), 2 mM EDTA, 1 mM dithiothreitol and 0.2 mg/ml protamine sulfate, and 2 ml of 10 mg/ml lysozyme solution was further added thereto and the mixture was allowed to stand on ice for 15 minutes. Then, this suspension was frozen in an ethanol/dry ice bath and then allowed to stand at a temperature of 25° C. until it was completely thawed. Further, it was centrifuged at 12,000 r.p.m. for 5 minutes whereby 20 ml crude enzyme was obtained as the supernatant. […]
The Km value of this purified GGA1 enzyme for the substrate ATP was determined (Table 2).

[6] = tested on: GGA1 luciferase variant GGA1 V239I (239-position Val to Ile); experiment: Catalytic efficiency (Vmax/Km) toward ATP, integrated light emission; type: biochemical, Luciola cruciata / Photinus pyralis; settings: ATP 0 to 1.0×10^-3 mM, 50 mM Tricine buffer (pH 7.8), 2.0 mM luciferin, 10 mM MgSO4; light integrated 5 to 15 seconds
Method: (§2) The resulting transformant was inoculated on an LB-amp plate [1.0% (W/V) Bacto-trypton, 0.5% (W/V) yeast extract, 0.5% (W/V) NaCl, 1.5% (W/V) agar and 50 μ g/ml ampicillin] and cultured at 37° C. for 12 hours. The resulting colonies were transferred onto a nitrocellulose filter, and said filter was immersed in 0.1 M sodium citrate buffer (pH 5.0) containing 0.5 mM luciferin [Wood & DeLuca, Anal. Biochem., 161, 501-507 (1987)]. The emission of light from said colonies was monitored, and 3 strains with raised emission could be obtained. These strains were designated E. coli JM 109 (pGGA2-1), E. coli JM 109 (pGGA1-4) and E. coli JM 109 (pGGA2-4), respectively. The E. coli JM 109 (pGGA2-1), E. coli JM 109 (pGGA1-4) and E. coli JM 109 (pGGA2-4) thus obtained have been deposited respectively as FERM BP-6206, FERM BP-6205 and FERM BP-6204 with the National Institute of Bioscience and Human-Technology, Agency of Industrial Science and Technology. Plasmids were removed from these strains by alkali-SDS method. These plasmids were subjected to reaction with a dye primer tuck sequencing kit (Applied Biosystems) and analyzed by electrophoresis with an ABI 373A DNA sequencer (Applied Biosystems) to determine their mutation sites (Table 4).
(§3) From the E. coli JM 109 (pGGA2-1), E. coli JM 109 (pGGA1-4), E. coli JM 109 (pGGA2-4), their crude enzyme solutions were extracted by the method described in Example 1, and these mutant enzymes were purified in the method described in Japanese Patent Laid-Open Publication No. 141592/1989.The purified enzymes were designated GGA1 T219I luciferase, GGA1 V290I luciferase and GGA1 V239I luciferase, respectively. […] The emission of light from 5 seconds to 15 seconds after initiation of the reaction was integrated in Luminometer ML3000 (Dynatech) to determine catalytic efficiency (Vmax/Km). As shown in the table below, it was confirmed that as compared with the GGA1 luciferase, catalytic efficiency was improved by mutating each of the amino acids at the 219-, 290-, and 239-positions.

[7] = tested on: GGA1 luciferase variant GGA1 V290I (290-position Val to Ile); experiment: as above; type: biochemical, Luciola cruciata / Photinus pyralis; settings: ATP 0 to 1.0×10^-3 mM, 50 mM Tricine buffer (pH 7.8), 2.0 mM luciferin, 10 mM MgSO4; light integrated 5 to 15 seconds
Method: as §2, §3

[8] = tested on: GGA1 luciferase variant GGA1 T219I (219-position Thr to Ile); experiment: as above; type: biochemical, Luciola cruciata / Photinus pyralis; settings: ATP 0 to 1.0×10^-3 mM, 50 mM Tricine buffer (pH 7.8), 2.0 mM luciferin, 10 mM MgSO4; light integrated 5 to 15 seconds
Method: as §2, §3

[9] = target: T1, Luciola cruciata luciferase, wild type (Nipponoluciola cruciata, UniProt P13129); experiment: Km for substrate ATP, peak light emission (HEPES pH 7.5); type: biochemical; settings: read-out: Km for the substrate ATP; ATP 0 to 2 mM, 50 mM HEPES (pH 7.5), 0.2 mM luciferin, 10 mM MgSO4
T1 sequence (P13129 1-548): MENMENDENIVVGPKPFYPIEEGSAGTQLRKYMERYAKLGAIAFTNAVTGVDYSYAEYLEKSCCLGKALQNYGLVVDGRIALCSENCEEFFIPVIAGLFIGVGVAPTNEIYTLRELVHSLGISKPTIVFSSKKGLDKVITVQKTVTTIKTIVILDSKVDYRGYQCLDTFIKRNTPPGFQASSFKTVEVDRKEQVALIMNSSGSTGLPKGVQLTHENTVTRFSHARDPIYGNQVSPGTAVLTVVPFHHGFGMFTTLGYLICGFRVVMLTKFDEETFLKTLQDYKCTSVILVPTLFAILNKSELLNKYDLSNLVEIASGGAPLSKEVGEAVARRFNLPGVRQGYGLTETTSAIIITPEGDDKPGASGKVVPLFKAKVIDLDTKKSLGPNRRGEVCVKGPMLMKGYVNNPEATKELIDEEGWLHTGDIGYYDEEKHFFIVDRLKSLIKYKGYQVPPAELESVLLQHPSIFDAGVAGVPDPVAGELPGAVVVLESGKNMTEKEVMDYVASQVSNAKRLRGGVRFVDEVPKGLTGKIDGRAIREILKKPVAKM
Method: Then, this suspension was frozen in an ethanol/dry ice bath and then allowed to stand at a temperature of 25° C. until it was completely thawed. Further, it was centrifuged at 12,000 r.p.m. for 5 minutes whereby 20 ml crude enzyme was obtained as the supernatant. The crude enzyme solution thus obtained was purified according to the method described in Japanese Patent Laid-Open Publication 141592/1989, and the purified enzyme was designated GA1 luciferase. The Km value of this purified preparation for the substrate ATP was determined.

[10] = substrate: Nc1ncnc2c1ncn2[C@@H]1O[C@H](COP(=O)(O)OP(=O)(O)OP(=O)(O)O)[C@@H](O)[C@H]1O; experiment: cells, lysate or membranes named; type: biochemical, Luciola lateralis; settings: other: ATP 0 to 2 mM, 50 mM Tricine buffer (pH 7.8), 0.2 mM luciferin, 10 mM MgSO4
Method: as §1

Molecule | Km [1] | Km [2] | Km [3] | Km [4] | Km [5] | Vmax/Km toward the substrate ATP [6] | Vmax/Km toward the substrate ATP [7] | Vmax/Km toward the substrate ATP [8] | Km [9] | Km [10]
Nc1ncnc2c1ncn2[C@@H]1O[C@H](COP(=O)(O)OP(=O)(O)OP(=O)(O)O)[C@@H](O)[C@H]1O [ATP] | 26.5 µM | 123 µM | 152 µM | 161 µM | 104 µM | 1.58 × 10^9 RLU/mg | 1.70 × 10^9 RLU/mg | 2.16 × 10^9 RLU/mg | 301 µM | –
B1 | – | – | – | – | – | – | – | – | – | 197 µM
